From ChEMBL document CHEMBL1201862, “PubChem BioAssay data set” (2004)
Blank lines part the entries; values can stand above or below the molecule they belong to. Active and inactive are the calls of the source.

What was measured:
Escherichia coli = assay: microbe, parasite or virus in culture
[1] = target: Beta-2 adrenergic receptor (Homo sapiens, UniProt P07550); assay: beta2AR agonists driving receptor internalization, dose response, cell-based, FAP fluorogen, flow cytometry, cherry pick 1 (AID 588763); type: functional
[2] = target: G-protein coupled receptor 55 (Homo sapiens, UniProt Q9Y2T6); assay: GPR55 antagonists, SAR follow-up, counter-screen for GPR35 antagonist project, imaging, image-based (AID 2397); type: functional
[3] = target: T1, G-protein coupled receptor 35 (Homo sapiens, UniProt Q9HC97); assay: GPR35 antagonists blocking zaprinast-driven arrestin recruitment, primary screen, imaging, U2OS, beta-arrestin-GFP, zaprinast agonist (AID 2058); type: functional;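 note: antagonist potency meaning inhibition of agonist-induced arrestin redistribution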
[4] = target: T1, G-protein coupled receptor 35; assay: SAR Analysis for the identification of Selective Antagonists of ERK1/2 Activity in GPR35-Overexpressing U2OS Cells. [Related pubchem assays: 2079, 2058 ]; type: functional, cell-based
[5] = target: T2, Sentrin-specific protease 7 (Homo sapiens, UniProt Q9BQF6); type: functional;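 note: Luminescence-based dose-response confirmation of ultra-high-throughput screening hits, measuring inhibition of SENP7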
T2 sequence (Q9BQF6 whole entry): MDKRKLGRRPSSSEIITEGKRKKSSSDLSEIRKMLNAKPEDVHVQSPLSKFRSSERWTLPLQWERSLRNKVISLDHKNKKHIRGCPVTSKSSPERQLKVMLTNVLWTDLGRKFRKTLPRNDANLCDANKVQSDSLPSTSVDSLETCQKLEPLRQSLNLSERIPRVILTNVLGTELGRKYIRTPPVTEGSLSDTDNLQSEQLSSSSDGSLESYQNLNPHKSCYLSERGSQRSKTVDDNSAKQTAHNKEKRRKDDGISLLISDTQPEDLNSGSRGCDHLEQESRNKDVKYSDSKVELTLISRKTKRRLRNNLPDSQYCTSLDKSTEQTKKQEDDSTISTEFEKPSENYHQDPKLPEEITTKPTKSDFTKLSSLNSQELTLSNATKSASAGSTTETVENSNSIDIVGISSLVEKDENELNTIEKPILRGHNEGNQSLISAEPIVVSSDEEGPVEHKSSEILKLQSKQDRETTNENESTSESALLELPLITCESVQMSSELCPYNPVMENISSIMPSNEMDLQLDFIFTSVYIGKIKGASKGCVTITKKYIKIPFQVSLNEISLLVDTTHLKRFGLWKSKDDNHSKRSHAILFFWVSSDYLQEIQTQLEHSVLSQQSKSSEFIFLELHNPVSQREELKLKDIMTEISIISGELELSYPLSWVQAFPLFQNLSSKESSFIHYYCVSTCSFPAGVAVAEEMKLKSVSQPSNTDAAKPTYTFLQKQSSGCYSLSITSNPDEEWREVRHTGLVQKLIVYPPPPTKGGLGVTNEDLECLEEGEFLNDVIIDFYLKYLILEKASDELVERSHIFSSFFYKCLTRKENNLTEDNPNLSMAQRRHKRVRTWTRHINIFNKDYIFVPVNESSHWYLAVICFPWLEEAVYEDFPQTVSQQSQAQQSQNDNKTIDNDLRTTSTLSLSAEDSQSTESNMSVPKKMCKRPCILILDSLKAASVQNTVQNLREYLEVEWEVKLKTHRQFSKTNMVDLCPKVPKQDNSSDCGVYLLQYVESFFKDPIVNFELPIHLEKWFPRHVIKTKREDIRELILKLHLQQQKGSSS

[6] = target: T3, Sentrin-specific protease 8 (Homo sapiens, UniProt Q96LD8); type: functional;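 note: luminescence read-out of SENP8 inhibition, dose-response confirmation following an ultra-high-throughput screen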
T3 sequence (Q96LD8 whole entry): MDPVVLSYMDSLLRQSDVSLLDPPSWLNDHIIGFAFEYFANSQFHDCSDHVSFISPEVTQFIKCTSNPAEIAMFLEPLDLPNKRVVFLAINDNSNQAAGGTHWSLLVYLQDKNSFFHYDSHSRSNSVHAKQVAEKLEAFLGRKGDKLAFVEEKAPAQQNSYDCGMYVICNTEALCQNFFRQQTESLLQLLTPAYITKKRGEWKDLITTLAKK

[7] = target: T4, Sentrin-specific protease 6 (Homo sapiens, UniProt Q9GZR1); type: functional;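 note: Luminescence-based dose-response confirmatory assay of SENP6 inhibition, following up an ultra-high-throughput screen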
T4 sequence (Q9GZR1 whole entry): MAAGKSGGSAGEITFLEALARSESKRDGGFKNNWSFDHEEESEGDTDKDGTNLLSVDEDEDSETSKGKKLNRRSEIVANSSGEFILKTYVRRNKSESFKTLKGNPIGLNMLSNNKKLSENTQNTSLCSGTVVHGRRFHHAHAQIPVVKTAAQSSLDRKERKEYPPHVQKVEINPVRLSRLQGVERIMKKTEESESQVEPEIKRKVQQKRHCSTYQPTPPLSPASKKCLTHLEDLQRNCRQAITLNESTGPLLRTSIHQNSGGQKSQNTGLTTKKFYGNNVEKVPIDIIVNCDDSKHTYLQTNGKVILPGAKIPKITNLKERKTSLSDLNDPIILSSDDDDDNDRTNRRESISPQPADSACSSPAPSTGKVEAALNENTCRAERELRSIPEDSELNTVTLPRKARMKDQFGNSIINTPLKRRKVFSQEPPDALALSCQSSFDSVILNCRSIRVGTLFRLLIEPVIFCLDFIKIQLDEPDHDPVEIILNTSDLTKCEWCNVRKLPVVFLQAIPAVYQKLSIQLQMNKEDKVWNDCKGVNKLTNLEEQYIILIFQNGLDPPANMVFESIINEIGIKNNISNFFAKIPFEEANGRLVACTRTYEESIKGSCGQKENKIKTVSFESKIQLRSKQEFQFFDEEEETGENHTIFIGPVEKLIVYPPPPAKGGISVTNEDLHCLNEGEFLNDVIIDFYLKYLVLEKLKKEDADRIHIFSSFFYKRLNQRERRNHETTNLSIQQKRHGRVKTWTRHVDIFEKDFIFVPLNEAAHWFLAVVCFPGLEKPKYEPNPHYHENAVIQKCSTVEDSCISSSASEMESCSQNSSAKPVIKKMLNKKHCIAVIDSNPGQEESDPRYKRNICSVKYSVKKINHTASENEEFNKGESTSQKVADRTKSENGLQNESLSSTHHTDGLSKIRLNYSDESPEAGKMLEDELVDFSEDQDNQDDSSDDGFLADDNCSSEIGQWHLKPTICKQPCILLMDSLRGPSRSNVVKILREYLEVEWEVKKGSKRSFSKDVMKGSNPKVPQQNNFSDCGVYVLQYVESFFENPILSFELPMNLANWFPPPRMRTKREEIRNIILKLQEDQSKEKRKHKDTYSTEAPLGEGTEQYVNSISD

HEK293 [8] = assay: cells; conditions: Homo sapiens
HEK293 [9] = assay: cells; conditions: Homo sapiens; remark: listed apart in the source
Caspase-3 = target: T5, Caspase-3 (Homo sapiens, UniProt P42574); type: functional;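 note: Dose-response selectivity test against caspase-3 for candidate inhibitors of sentrin-specific proteases (SENPs)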
T5 sequence (P42574 whole entry): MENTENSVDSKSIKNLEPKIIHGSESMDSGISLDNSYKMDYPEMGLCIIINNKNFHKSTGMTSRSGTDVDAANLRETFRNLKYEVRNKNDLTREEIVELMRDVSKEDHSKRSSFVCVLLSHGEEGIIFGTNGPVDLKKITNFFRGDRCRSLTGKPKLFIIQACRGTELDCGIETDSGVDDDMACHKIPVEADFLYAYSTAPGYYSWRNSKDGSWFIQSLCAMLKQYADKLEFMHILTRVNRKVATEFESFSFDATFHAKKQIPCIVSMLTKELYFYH

Hexokinase-1 = Hexokinase-1 (Homo sapiens, UniProt P19367); assay: SAR analysis of small molecule inhibitors of hexokinase domain containing I (HKDC1) in the hexokinase 1 selectivity assay. [Related pubchem assays (depositor defined):AID493160, AID493190]; type: functional
Hexokinase HKDC1 = target: T6, Hexokinase HKDC1 (Homo sapiens, UniProt Q2TB90); assay: SAR analysis of small molecule inhibitors of hexokinase domain containing I (HKDC1). [Related pubchem assays (depositor defined):AID493160, AID493190]; type: functional
T6 sequence (Q2TB90 whole entry): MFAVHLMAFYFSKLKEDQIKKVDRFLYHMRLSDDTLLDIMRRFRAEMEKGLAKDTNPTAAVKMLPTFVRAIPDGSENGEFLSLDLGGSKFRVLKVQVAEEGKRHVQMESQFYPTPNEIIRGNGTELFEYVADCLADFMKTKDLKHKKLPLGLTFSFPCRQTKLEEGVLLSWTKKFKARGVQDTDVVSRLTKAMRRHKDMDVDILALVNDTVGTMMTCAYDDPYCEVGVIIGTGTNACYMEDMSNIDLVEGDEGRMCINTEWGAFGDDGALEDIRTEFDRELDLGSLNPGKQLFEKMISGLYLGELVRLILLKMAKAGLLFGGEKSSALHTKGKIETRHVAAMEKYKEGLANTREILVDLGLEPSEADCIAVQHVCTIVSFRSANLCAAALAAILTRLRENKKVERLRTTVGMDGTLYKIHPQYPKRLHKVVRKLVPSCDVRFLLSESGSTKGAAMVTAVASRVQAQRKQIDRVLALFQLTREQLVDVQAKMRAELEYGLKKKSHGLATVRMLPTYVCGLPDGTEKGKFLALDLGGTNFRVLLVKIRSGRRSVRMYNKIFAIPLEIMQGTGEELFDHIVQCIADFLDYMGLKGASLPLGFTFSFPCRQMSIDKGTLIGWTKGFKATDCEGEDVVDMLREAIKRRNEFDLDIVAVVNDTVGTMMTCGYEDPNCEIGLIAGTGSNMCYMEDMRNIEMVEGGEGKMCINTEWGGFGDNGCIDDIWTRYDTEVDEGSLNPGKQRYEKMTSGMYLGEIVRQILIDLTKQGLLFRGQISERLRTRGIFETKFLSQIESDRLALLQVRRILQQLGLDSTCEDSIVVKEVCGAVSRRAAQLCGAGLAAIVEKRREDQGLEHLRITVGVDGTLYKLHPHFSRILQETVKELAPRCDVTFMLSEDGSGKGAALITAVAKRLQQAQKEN

[10] = target: T7, Short transient receptor potential channel 4 (Mus musculus, UniProt Q9QUQ5); assay: TRPC4 inhibitor concentration-response, dose response, cell-based, HEK293 TRPC4/mu-opioid, DAMGO stimulus, Fluo-4 (AID 492994); type: functional
T7 sequence (Q9QUQ5 whole entry): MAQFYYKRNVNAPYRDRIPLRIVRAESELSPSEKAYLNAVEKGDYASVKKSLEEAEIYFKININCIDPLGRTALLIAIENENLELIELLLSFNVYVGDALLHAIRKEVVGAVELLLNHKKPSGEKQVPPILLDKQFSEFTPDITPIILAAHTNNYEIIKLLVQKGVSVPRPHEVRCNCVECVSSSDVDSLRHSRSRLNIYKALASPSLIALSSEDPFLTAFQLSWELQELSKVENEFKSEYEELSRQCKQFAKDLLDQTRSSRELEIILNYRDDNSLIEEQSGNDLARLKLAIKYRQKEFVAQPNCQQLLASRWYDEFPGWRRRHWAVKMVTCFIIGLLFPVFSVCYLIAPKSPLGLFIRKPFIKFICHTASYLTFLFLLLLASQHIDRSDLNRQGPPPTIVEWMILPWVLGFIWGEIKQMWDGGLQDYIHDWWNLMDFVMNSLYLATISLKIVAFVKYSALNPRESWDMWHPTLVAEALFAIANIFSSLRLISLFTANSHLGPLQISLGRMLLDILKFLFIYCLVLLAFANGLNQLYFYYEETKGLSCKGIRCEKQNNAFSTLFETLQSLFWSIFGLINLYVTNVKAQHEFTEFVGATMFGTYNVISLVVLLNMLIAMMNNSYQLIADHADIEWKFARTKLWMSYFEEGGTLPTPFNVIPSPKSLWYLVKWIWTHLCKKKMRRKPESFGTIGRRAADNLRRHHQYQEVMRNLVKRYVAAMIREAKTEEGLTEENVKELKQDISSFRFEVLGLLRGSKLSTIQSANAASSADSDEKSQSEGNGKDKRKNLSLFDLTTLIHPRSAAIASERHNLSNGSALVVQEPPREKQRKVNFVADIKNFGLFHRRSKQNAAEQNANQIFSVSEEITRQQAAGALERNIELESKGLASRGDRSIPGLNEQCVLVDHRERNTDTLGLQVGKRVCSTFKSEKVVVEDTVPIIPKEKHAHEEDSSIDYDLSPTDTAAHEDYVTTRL

[11] = target: Short transient receptor potential channel 6 (Mus musculus, UniProt Q61143); assay: TRPC6 inhibition potency of TRPC4 inhibitor analogs, dose response, selectivity assay for selective TRPC4 inhibitor project, HEK293 cells, membrane potential dye, IC50 (AID 492987); type: functional, cell-based
Phospholipase D1 = Phospholipase D1 (Homo sapiens, UniProt Q13393); assay: PLD1 inhibitor potency in cells, dose response (AID 602151); type: functional;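 note: cellular PLD1 assay in Calu-1 cells stimulated with PMA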
Phospholipase D2 = Phospholipase D2 (Homo sapiens, UniProt O14939); assay: PLD2 inhibitor potency in cells, dose response (AID 602147); type: functional;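 note: cellular assay in HEK293 cells overexpressing GFP-tagged PLD2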
Chain of Phospholipase D2 (O14939 whole entry): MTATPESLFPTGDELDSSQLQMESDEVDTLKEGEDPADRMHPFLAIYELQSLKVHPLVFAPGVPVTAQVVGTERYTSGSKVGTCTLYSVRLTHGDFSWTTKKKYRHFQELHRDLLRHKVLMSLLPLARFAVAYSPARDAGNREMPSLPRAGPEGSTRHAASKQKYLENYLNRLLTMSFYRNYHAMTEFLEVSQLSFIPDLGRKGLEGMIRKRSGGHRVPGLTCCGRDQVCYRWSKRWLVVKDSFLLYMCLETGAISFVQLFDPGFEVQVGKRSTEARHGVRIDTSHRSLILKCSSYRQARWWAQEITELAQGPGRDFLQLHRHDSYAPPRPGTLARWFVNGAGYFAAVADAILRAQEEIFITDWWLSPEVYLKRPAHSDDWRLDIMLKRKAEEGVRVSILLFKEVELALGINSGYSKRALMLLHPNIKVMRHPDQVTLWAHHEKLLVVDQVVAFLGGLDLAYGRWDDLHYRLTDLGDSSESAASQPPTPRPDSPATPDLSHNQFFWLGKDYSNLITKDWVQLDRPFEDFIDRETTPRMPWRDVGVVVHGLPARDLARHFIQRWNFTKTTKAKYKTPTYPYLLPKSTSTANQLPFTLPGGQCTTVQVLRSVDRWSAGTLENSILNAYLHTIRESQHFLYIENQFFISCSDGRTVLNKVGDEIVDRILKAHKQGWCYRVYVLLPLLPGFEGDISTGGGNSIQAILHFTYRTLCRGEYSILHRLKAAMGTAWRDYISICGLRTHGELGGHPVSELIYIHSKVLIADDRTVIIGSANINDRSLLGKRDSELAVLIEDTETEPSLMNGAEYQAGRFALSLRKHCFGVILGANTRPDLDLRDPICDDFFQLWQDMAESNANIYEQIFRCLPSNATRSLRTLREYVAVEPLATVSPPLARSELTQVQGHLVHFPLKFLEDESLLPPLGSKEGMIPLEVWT

T1 sequence (Q9HC97 whole entry): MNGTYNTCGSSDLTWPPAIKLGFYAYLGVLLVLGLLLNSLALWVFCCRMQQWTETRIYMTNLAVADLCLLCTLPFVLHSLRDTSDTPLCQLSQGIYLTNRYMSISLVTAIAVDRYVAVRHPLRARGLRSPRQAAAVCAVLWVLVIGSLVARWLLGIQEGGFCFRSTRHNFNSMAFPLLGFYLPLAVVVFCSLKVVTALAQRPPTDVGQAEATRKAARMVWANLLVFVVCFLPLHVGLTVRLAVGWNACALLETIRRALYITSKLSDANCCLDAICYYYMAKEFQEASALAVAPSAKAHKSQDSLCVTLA
Chain of Hexokinase-1 (P19367 whole entry, the tested form may be a part): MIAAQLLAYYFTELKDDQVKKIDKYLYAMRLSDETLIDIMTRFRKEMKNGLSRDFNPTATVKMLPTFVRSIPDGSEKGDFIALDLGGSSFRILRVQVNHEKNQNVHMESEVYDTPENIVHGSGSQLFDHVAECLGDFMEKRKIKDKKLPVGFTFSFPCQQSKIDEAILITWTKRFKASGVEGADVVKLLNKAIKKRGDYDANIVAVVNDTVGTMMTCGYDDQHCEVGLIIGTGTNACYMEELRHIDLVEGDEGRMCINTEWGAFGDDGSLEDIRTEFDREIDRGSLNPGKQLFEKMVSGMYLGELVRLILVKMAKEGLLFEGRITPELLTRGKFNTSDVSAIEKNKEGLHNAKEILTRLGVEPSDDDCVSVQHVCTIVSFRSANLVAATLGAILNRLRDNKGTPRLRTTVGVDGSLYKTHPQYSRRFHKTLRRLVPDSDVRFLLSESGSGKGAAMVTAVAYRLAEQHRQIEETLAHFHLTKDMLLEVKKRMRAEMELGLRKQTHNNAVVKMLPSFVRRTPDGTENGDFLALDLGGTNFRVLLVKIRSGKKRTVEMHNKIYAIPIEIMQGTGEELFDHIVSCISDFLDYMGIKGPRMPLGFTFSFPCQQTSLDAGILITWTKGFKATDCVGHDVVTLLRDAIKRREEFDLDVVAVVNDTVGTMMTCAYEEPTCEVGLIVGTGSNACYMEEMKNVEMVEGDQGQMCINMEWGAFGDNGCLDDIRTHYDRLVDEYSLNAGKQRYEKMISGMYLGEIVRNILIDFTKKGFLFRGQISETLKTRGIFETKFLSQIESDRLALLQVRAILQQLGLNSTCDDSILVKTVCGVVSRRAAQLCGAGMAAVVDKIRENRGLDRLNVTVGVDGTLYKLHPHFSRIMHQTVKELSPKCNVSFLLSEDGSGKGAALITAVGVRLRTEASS
Chain of Beta-2 adrenergic receptor (P07550 whole entry): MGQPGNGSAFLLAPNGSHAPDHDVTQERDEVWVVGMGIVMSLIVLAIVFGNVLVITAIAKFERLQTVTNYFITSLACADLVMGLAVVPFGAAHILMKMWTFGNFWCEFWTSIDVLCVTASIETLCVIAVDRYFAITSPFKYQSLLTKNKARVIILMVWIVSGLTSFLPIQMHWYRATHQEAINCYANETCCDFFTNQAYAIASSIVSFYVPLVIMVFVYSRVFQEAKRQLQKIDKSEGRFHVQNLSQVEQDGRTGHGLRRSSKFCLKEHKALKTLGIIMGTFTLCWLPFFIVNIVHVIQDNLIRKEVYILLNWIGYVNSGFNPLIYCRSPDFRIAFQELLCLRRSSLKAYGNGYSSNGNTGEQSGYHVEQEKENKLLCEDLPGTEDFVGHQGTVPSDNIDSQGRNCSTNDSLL
Chain of Phospholipase D1 (Q13393 whole entry): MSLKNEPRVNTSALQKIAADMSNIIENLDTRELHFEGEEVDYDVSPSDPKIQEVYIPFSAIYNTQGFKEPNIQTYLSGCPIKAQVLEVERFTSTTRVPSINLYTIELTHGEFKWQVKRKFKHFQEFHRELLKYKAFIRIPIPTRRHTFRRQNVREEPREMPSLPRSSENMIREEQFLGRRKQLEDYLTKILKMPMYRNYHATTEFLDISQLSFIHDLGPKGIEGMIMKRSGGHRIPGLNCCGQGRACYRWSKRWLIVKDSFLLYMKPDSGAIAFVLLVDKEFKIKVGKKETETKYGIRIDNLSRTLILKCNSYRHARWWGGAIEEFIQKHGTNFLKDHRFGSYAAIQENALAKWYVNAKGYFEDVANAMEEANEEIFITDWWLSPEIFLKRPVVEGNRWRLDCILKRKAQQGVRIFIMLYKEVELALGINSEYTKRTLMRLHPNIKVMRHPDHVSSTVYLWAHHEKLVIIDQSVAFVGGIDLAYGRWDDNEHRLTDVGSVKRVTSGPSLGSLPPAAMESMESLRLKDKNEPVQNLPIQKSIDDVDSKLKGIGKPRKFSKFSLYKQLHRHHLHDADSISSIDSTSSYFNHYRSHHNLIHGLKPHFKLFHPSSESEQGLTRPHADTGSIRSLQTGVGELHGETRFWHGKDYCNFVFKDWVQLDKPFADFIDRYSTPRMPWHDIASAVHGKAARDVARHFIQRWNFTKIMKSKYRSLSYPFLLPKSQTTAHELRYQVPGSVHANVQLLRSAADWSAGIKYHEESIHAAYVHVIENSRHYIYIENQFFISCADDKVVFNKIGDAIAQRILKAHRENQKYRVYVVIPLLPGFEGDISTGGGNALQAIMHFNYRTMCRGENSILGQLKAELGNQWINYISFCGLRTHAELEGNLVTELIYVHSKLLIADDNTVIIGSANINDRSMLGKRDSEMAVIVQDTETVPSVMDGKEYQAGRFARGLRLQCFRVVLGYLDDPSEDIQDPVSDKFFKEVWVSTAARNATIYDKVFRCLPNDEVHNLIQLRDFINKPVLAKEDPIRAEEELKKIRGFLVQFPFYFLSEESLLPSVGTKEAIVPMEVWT
Chain of Short transient receptor potential channel 6 (Q61143 whole entry): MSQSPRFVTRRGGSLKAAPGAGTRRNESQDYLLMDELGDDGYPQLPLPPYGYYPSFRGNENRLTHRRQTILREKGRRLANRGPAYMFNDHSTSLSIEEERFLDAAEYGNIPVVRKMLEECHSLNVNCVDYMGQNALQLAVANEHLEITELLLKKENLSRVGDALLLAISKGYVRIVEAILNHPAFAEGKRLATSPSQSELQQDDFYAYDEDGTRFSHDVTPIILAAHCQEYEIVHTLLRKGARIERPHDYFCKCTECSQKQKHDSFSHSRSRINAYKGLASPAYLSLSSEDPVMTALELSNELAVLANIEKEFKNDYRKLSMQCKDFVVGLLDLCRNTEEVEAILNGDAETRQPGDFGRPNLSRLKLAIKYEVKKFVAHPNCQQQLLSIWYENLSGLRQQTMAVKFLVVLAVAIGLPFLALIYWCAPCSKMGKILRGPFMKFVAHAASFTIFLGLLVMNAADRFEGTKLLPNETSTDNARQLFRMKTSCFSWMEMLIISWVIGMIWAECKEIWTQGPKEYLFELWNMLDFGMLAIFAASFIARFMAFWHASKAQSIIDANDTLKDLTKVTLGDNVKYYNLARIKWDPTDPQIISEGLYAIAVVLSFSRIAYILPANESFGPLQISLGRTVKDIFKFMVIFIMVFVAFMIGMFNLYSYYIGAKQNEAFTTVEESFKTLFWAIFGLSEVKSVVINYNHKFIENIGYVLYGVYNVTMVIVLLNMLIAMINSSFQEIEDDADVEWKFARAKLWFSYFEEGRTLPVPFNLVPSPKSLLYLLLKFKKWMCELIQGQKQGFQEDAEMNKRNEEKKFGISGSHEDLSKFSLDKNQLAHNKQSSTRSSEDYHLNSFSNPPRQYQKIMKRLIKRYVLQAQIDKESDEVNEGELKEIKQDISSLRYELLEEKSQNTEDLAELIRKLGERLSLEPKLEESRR
Chain of G-protein coupled receptor 55 (Q9Y2T6 whole entry): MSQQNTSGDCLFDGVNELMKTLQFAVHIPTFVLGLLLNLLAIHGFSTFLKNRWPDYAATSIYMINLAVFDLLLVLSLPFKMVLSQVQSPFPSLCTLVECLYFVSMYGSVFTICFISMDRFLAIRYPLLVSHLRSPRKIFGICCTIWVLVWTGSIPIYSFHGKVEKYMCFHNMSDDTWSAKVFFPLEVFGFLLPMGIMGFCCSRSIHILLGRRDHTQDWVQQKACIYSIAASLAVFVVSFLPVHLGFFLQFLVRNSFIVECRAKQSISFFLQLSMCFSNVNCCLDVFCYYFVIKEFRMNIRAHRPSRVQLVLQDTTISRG

Compound: CCOC(=O)c1cc(C)sc1NC(=O)C(c1ccccc1)c1ccccc1
AC50 (Escherichia coli): 123 µM (active)

Compound: COc1cc(C#Cc2ccc3cc(CCCO)oc(=O)c3c2)cc(OC)c1
IC50 [5]: 2.81 µM (active)
IC50 [6]: 10.6 µM (active)
IC50 [7]: 7.16 µM (active)
EC50 (HEK293 [8]): > 59.6 µM (inactive)
EC50 (HEK293 [9]): > 59.6 µM (inactive)
IC50 (Caspase-3): 21 µM (active)

Compound: O=C(NCCN1CCC2(CC1)C(=O)NCN2c1cccc(F)c1)c1ccc(F)nc1
IC50 (Phospholipase D1): 17 µM (active)
IC50 (Phospholipase D2): 0.385 µM (active)

The remaining lines, values ahead:

EC50 [1]: 1.74 µM (active)
IC50 [2]: > 32 µM (inactive)
IC50 [3]: 0.768 µM (active)
IC50 [4]: 16.5 µM (not active)
Compound: O=C(Nc1ccc2nc(SCc3ccc(Cl)cc3)sc2c1)c1ccccc1C(=O)N1CCOCC1

IC50 (Hexokinase-1): > 80 µM (inactive)
IC50 (Hexokinase HKDC1): > 80 µM (inactive)
Compound: O=c1c2ccccc2nc(/C=C/c2cccc(Br)c2)n1Cc1ccccc1

IC50 [10]: 31.9 µM (active)
IC50 [11]: 16.9 µM (active)
Compound: Cc1cc(N2CCC(N3CCOCC3)CC2)nc2ccccc12
